In patent US4725598A, “Derivative of dihydroxybenzamide and a pharmaceutical composition having an anti-inflammatory activity” (priority 1983, dated 1988):
Read-outs that look alike come from different tables or passages of the source.

What was measured:
[1] = tested on: migration of polymorphonuclear leukocytes; assay: Inhibition of migration of polymorphonuclear leukocytes, in vivo pouch-CMC method; design: species or system male Donryu rats
Method: The activity of each of the present compounds in in vivo inhibiting the migration of polymorphonuclear leukocytes was examined by the pouch-CMC method presented by Ishikawa (refer to J. Pharmaceut. Soc., Japan, 88, 1472, 1968) using male Donryu rats.
After cutting the hairs on the back of each male Donryu rat at a 5 cm square, 5 ml of air were subcutaneously injected into the hair-cut position, and after 24 hours of the injection, 5 ml of a 0.2% solution of sodium carboxymethylcellulose in a saline was injected into the pouch made by the injected air.
After dividing the rats into 3 groups, an aqueous 0.2% solution of carboxymethylcellulose was orally administered to each rat of the first group at a rate of 1 ml/100 g body weight (as control), and each of the present compounds (Compounds Nos. 1, 2 and 4) was orally administered to each rat of the second group after suspending the compound in an aqueous 0.2% solution of carboxymethylcellulose. Each rat of the third group is orally administered with an aqueous solution of indomethacin as positive control.
After 3 and 6 hours of the injection, the exudates in the pouch were collected from each rat, and the number of polymorphonuclear leukocytes (hereinafter referred to as PMN) exudated was counted and, the results are shown in Table 2.

granuloma formation = format: in vivo, male Donryu rats; settings: 10 days
Method: The activity of the present compounds in inhibiting the granuloma formation was examined according to the method of Fujimura et al. (refer to "OYO YAKURI", 19(3), 329(1981)) while using male Donryu rats of 5 weeks after birth as follows.
(§1) After burying a paper disk of 13 mm in diameter and 0.26 mm in thickness immersed in an aqueous 2% solution of carboxymethylcellulose (hereinafter referred to as CMC) containing both dihydroxystreptomycin and penicillin (both of 10^6 unit at a rate of 0.1 mg/ml) into the back of each rat under anesthesia by ether, the rats were divided into four groups. To rats of the first group, an aqueous 0.3% solution of CMC was orally administered every day for 10 days, to rat of the second group, an aqueous dispersion of one of the present compounds shown in Table 3 in an aqueous 0.3% solution of CMC was orally administered every day for 10 days and to rat of the third and fourth groups, an aqueous 0.3% solution of CMC containing either indomethacin or prednisolone was orally administered every day for 10 days.
The rate of inhibiting the granuloma formation was obtained from the following formula: [formula] wherein T is the average weight of granuloma in the test group and C is the average weight of granuloma in the control group.

[2] = design: species or system male Donryu rats; settings: rat, in vivo
Method: as §1

platelet aggregation = assay: Inhibitory activity of platelet aggregation (sodium arachidonate induced, platelet-rich plasma); format: cell-based; settings: Oryctolagus cuniculus, rabbit plasma, sodium arachidonate 400 μM, read-out: IC100 (concentration necessary for inhibiting platelet aggregation perfectly)
Method: After collecting blood specimen from the auricular vein of a male rabbit of an ordinary race in the presence of citrate, the thus collected blood was subjected to centrifugation to obtain a platelet-rich plasma (PRP) and a platelet-poor plasma (PPP) therefrom. The plasma containing 300,000 platelets/μl was prepared by diluting the PRP with the PPP, and divided equally into two portions.
Into the first portion of the thus obtained plasma mixture, as control, dimethylsulfoxide was added, and then, an aqueous solution of sodium arachidonate as an aggregation agent prepared by dissolving thereof into a saline solution was added to the resultant mixture to adjust the final concentration of the arachidonate therein to 400 μM.
On the other hand, into the second portion thereof, a solution of each of the present compounds shown in Table 1 in dimethylsulfoxide was added, and then, the above-mentioned aqueous solution of sodium arachidonate was added to the resultant mixture.
The platelet aggregation reactions were measured with the aid of a platelet aggregation tracer (model PAT-4A, made by NIKO Bioscience Co., Ltd.) and its IC100 values (the concentration of an agent necessary for inhibiting platelet aggregation perfectly) are shown in Table 1.

adjuvant arthritis = assay: Inhibitory activity of adjuvant arthritis; format: in vivo, male Lewis rats; settings: for Increment of the volume of hind paw after 21 days of injection (I1): at beginning of administration; for Increment of the volume of hind paw after 36 days of injection (I2) / Rate of inhibiting adjuvant arthritis: 14 days
Method: The activity of the present compound in inhibiting the adjuvant arthritis was examined while using groups of male Lewis rats of 8 weeks after birth and according to the method of Fujihira et al. (refer to "OYO YAKURI", 5(2), 169, (1971)) as follows.
Groups of 8 rats were used, and to each rat of whole groups under anesthesia by ether, a Freund's complete adjuvant dissolved in mineral oil at a concentration of 0.6 mg/0.1 ml was injected intradermally into the trail thereof.
After 3 weeks of the injection, to each rat of a group an aqueous dispersion of one of the present compounds shown in Table 4 in an aqueous 0.3% solution of CMC was orally administered every day for 14 days, and to each of the control group, the aqueous 0.3% solution of CMC was administered in a similar manner, each rat of the positive control group being treated with the similar oral administration of prednisolone in the aqueous 0.3% solution of CMC. The volume of the hind paw of each rat was measured on the day of starting the administration and on the next day after finishing the administration.
The results of the test are shown in Table 4 as the increment of the volume of the hind paw and the rate of inhibiting the increase of the volume thereof.
The increment of the volume of the hind paw at the beginning of the administration, namely after 21 days of the injection of the complete adjuvant (I1), and the increment of that after the finishing of the injection, namely after 36 days of the injection of the complete adjuvant (I2) are respectively as follows.
wherein V0 is the volume of the hind paw just before the injection, V1 is that after 21 days of the injection and V2 is that after 36 days of the injection.
The rate of inhibiting the increase of the volume of the hind paw, namely the activity of treating the adjuvant arthritis is obtained by the following formula: [formula]

| Compound | IC100 (platelet aggregation) [µM] | Inhibition rate of exudation of PMN ([1]; after 3 hr, 50 mg/kg oral) [%] | Number of PMN in exudated liquid ([1]; after 3 hr, 50 mg/kg oral) | Inhibition rate of exudation of PMN ([1]; after 6 hr, 50 mg/kg oral) [%] | Number of PMN in exudated liquid ([1]; after 6 hr, 50 mg/kg oral) | Rate of inhibition of granuloma formation (granuloma formation; 25 mg/kg/day oral) [%] | Weight of dried granuloma (granuloma formation; 25 mg/kg/day oral) [mg] | Rate of inhibition of granuloma formation (granuloma formation; 50 mg/kg/day oral) [%] | Weight of dried granuloma (granuloma formation; 50 mg/kg/day oral) [mg] | further results |
| --- | --- | --- | --- | --- | --- | --- | --- | --- | --- | --- |
| COc1ccc2c(c1)c(CC(=O)O)c(C)n2C(=O)c1ccc(Cl)cc1 [indomethacin, reference compound] |  |  |  |  |  |  |  |  |  | Inhibition rate of exudation of PMN ([1]; after 3 hr, 3 mg/kg oral): 20.4%; Number of PMN in exudated liquid ([1]; after 3 hr, 3 mg/kg oral): 3.9 (number/mm^3) × 10^3; Inhibition rate of exudation of PMN ([1]; after 6 hr, 3 mg/kg oral): 22.0%; Number of PMN in exudated liquid ([1]; after 6 hr, 3 mg/kg oral): 17.0 (number/mm^3) × 10^3; Rate of inhibition of granuloma formation (granuloma formation; 3 mg/kg/day oral): 39%; Weight of dried granuloma (granuloma formation; 3 mg/kg/day oral): 175 mg; autopsy findings, gastric [2]: hemorrhage from the gastric mucosa and formation of stomach ulcer were found |
| O=C(NCCCc1ccccc1)c1ccc(O)c(O)c1 [compound 6, N--(ω-phenylpropyl)-3,4-dihydroxybenzamide] | 80 |  |  |  |  |  |  |  |  |  |
| CCCCNC(=O)c1ccc(O)c(O)c1 [compound 3, N--(n-butyl)-3,4-dihydroxybenzamide] | 45 |  |  |  |  |  |  |  |  |  |
| C[C@]12C=CC(=O)C=C1CC[C@@H]1[C@@H]2[C@@H](O)C[C@@]2(C)[C@H]1CC[C@]2(O)C(=O)CO [prednisolone, reference compound] |  |  |  |  |  |  |  |  |  | Rate of inhibition of granuloma formation (granuloma formation; 3 mg/kg/day oral): 45%; Weight of dried granuloma (granuloma formation; 3 mg/kg/day oral): 158 mg; Increment of the volume of hind paw after 21 days of injection (I1) (adjuvant arthritis; 3 mg/kg/day group): 1.27 mL; Increment of the volume of hind paw after 36 days of injection (I2) (adjuvant arthritis; 3 mg/kg/day oral): 0.71 mL; Rate of inhibiting adjuvant arthritis (adjuvant arthritis; 3 mg/kg/day oral): 44%; autopsy findings, gastric [2]: hemorrhage from the gastric mucosa and formation of stomach ulcer were found; autopsy findings, thymus [2]: atrophy of the thymus was significantly found |
| O=C(c1ccc(O)c(O)c1)N1CCCCC1 [compound 4, 3,4-dihydroxybenzpiperidide] | 65 | 46.9 | 2.6 (number/mm^3) × 10^3 | 25.2 | 16.3 (number/mm^3) × 10^3 | 49 | 146 | 65 | 101 |  |
| CCCCCCCCNC(=O)c1ccc(O)c(O)c1 [Compound No. 1, N-(n-octyl)-3,4-dihydroxybenzamide] | < 18 | 51.0 | 2.4 (number/mm^3) × 10^3 | 22.9 | 16.8 (number/mm^3) × 10^3 | 53 | 135 | 72 | 80 | Increment of the volume of hind paw after 21 days of injection (I1) (adjuvant arthritis; 25 mg/kg/day group): 1.29 mL; Increment of the volume of hind paw after 36 days of injection (I2) (adjuvant arthritis; 25 mg/kg/day oral): 0.65 mL; Rate of inhibiting adjuvant arthritis (adjuvant arthritis; 25 mg/kg/day oral): 50%; Increment of the volume of hind paw after 21 days of injection (I1) (adjuvant arthritis; 50 mg/kg/day group): 1.28 mL; Increment of the volume of hind paw after 36 days of injection (I2) (adjuvant arthritis; 50 mg/kg/day oral): 0.59 mL; Rate of inhibiting adjuvant arthritis (adjuvant arthritis; 50 mg/kg/day oral): 54% |
| O=C(Nc1ccccn1)c1ccc(O)c(O)c1 [Compound No. 2, N--(2-pyridyl)-3,4-dihydroxybenzamide] | 25 | 53.1 | 2.3 (number/mm^3) × 10^3 | 37.6 | 13.6 (number/mm^3) × 10^3 | 64 | 98 | 76 | 69 | Increment of the volume of hind paw after 21 days of injection (I1) (adjuvant arthritis; 25 mg/kg/day group): 1.32 mL; Increment of the volume of hind paw after 36 days of injection (I2) (adjuvant arthritis; 25 mg/kg/day oral): 0.51 mL; Rate of inhibiting adjuvant arthritis (adjuvant arthritis; 25 mg/kg/day oral): 61%; Increment of the volume of hind paw after 21 days of injection (I1) (adjuvant arthritis; 50 mg/kg/day group): 1.30 mL; Increment of the volume of hind paw after 36 days of injection (I2) (adjuvant arthritis; 50 mg/kg/day oral): 0.53 mL; Rate of inhibiting adjuvant arthritis (adjuvant arthritis; 50 mg/kg/day oral): 59% |
| CCCCCCCCCCCCNC(=O)c1ccc(O)c(O)c1 [compound 5, N--(n-dodecyl)-3,4-dihydroxybenzamide] | < 18 |  |  |  |  |  |  |  |  |  |
| CN1CCN(C(=O)c2ccc(O)c(O)c2)CC1 [compound 7, 3,4-dihydroxybenz-N--methylpiperazide] | 300 |  |  |  |  |  |  |  |  |  |
